Assays:
[1] = test system: lipoxygenase of circulating human leukocytes (PMNs); assay: Inhibition of the lipoxygenase of circulating human leukocytes (PMNs), by radioimmunoassay of LTC4; type: cell-based; details: Leukocyte, 8 min, calcium ionophore A23187 (0.25 μM), 8 minutes at 37° C.
Procedure: 1.1--Inhibition of the lipoxygenase of circulating human leukocytes (PMNs), by radioimmunoassay of LTC4 Methods Heparinized human blood is sedimented for 1 hour at 37° C. in sterile saline solution containing 4.5% of Dextran T 500. The upper, leukocyte-rich phase, is collected, deposited on Ficoll-Paque (7:3 v/v) and then centrifuged (20 minutes, 400×g, 4° C.). The centrifugation pellet is treated with 0.75% strength NH4 Cl to lyse the red cells. After centrifugation (20 minutes, 400×g, 4° C.), supernatent is removed and the pellet is resuspended in Dulbecco's PBS buffer containing 1 mM calcium chloride. […] The incubation is blocked by adding one volume of ice-cold water, and the suspension is centrifuged (15 minutes, 1500×g, 4° C.). Aliquots of the supernatent are then subjected to radioimmunoassay (New England Nuclear Kit). The percentage inhibition of the 5-lipoxygenase pathway is measured in terms of the concentration of each compound. From these curves, the concentration which 50% inhibits LTC4 tracer formation (IC50) is deduced.

[2] = test system: prostanoid pathways (thromboxane B2) in rabbit platelets; assay: Inhibition of the metabolism of [14C]arachidonate in rabbit platelets (disappearance of TXB2); type: cell-based; details: Oryctolagus cuniculus, Platelet
Procedure: 1.2--Inhibition of the metabolism of [^14 C]arachidonate in rabbit platelets
12 ml of blood are withdrawn nitracardially into ACD (anticoagulant consisting of an aqueous solution containing 0.27 g of citric acid, 0.5 g of disodium citrate and 0.02 g of glucose for 20 ml of water) in a proportion of 1 volume of ACD for 6 volumes of blood. The mixture is centrifuged (10 minutes, 200×g, 20° C.), and the supernatent (PRP) collected and centrifuged again (15 minutes, 1500×g, 20° C.). The platelet pellet is washed in buffer I [NaCl, 8 g/l; Tris, 1.21 g/l; KCl, 0.2 g/l; gelatin, 2.5 g/l; this mixture is heated to 90° C. to dissolve the gelatin, and then glucose, 1 g/l, and ethylene glycol bis(β-aminoethyl ether) N,N,N',N'-tetraacetic acid or EGTA, 0.075 g/l, are added]. The suspension is centrifuged (15 minutes, 1500×g, 20° C.) and the pellet taken up in buffer II (NaCl, 8 g/l; Tris, 1.21 g/l; KCl, 0.2 g/l; CaCl2, 0.145 g/l; MgCl2, 0.2 g/l; gelatin, 2.5 g/l; the mixture is brought to 90° C., glucose, 1 g/l, is added and the pH is adjusted to 7.4 with 0.1N HCl).
The platelet suspension (0.4 ml/tube) is preincubated for 10 minutes at 37° C., either with 10 μl of DMSO (control), or with varied concentrations of test compounds dissolved in 10 μl of DMSO.
The incubation is carried out in the presence of [^14 C]arachidonate (1 μg, 0.2 μCi) distributed in 0.1 ml of buffer II, and the incubation is then blocked after 15 minutes with 50 μl of citric acid and 250 μl of saturated NaCl.
After extraction with ethyl acetate, the metabolites of [^14 C]arachidonate are separated by thin layer chromatography and quantified using a radio-scanner.
The percentage inhibition of the prostanoid pathways is estimated by measuring the disappearance of thromboxane B2 (TXB2) in terms of the concentration of each compound.
Results corresponding to 50 μM and 100 μM of compounds of formula I are given by way of example in Table II.

[3] = test system: protein influx into the anterior chamber of the eye; assay: Inhibition of protein influx into the anterior chamber of the eye after corneal paracentesis; type: in vivo, albino New Zealand rabbits; details: rabbit eye
Procedure: Anti-inflammatory activity measured by the inhibition of protein influx into the anterior chamber of the eye after corneal paracentesis. […] The effect of various concentrations of each compound is measured on 6 eyes of albino New Zealand rabbits.

[4] = Acute toxicity (LD50) in rats; details: rat, in vivo, 14 days of observation, with 5% confidence interval
Procedure: The rats used are of Wistar strain of average weight 150 g.
The LD50 is determined after 14 days of observation.
The results below give the LD50 values for the compound 3 of the invention, together with the 5% confidence interval.

[5] = test system: leukocyte infiltration into the aqueous humour; details: recent experimental studies; cited from earlier work

Compound	IC50 [1] [nM]	inhibition at 50 µM [2] [%]	inhibition at 100 µM [2] [%]	also measured
Cc1cc(C)c(O)c(Nc2nccs2)c1 [Compound 6]	200	70	–	–
Oc1cccnc1Nc1nccs1 [Compound 7]	–	36	36	–
CC(C)(C)c1ccc(Nc2nccs2)c(O)c1 [Compound 5]	1600	76	–	–
Cc1ccc(Nc2nccs2)c(O)c1.Cl [Compound 3, 2-(2-hydroxy-4-methylphenyl)aminothiazole hydrochloride]	330	100	100	Inhibition (%) of protein influx into the anterior chamber of the eye after corneal paracentesis ([3]; 0.1 mg/100 ml): 20%; Inhibition (%) of protein influx into the anterior chamber of the eye after corneal paracentesis ([3]; 0.5 mg/100 ml): 35%; Inhibition (%) of protein influx into the anterior chamber of the eye after corneal paracentesis ([3]; 1 mg/100 ml): 50%; LD50 at 336 h ([4]; iv, female rat): 51 ± 2 mg/kg; LD50 at 336 h ([4]; iv, male rat): 51 ± 2 mg/kg; LD50 at 336 h ([4]; po, female rat): 2350 ± 90 mg/kg; LD50 at 336 h ([4]; po, male rat): 2950 ± 96 mg/kg
COc1ccc2c(c1)c(CC(=O)O)c(C)n2C(=O)c1ccc(Cl)cc1 [Indomethacin]	–	–	–	leukocyte infiltration into the aqueous humour [5]: increases the leukocyte infiltration into the aqueous humour

Now from value to compound, other results behind:

IC50 [1] [nM]	Compound	inhibition at 50 µM [2] [%]	inhibition at 100 µM [2] [%]	also measured
250	Cc1ccc(O)c(Nc2nccs2)c1 [Compound 4]	68	–	–
300	Oc1ccc(Cl)cc1Nc1nccs1 [Compound 2]	100	100	–
1200	Oc1ccccc1Nc1nccs1 [Compound 1]	34	91	–

Reference: patent US4785008A, “N-substituted 2-amino-thiazoles, process for their preparation and their therapeutic application” (Laboratoires Chauvin-Blache, priority 1985, dated 1988)
